From patent publication US11046728B2, “Neuroactive steroids, compositions, and uses thereof” (Sage Therapeutics, Inc., priority 2013, dated 2021) come the findings set out here.

Assay [1] deals with male Sprague Dawley rats. In words: Loss of righting reflex in rats. Particulars: intravenous bolus 5 mg/kg. The class given is in vivo, rat. As to the method:
The plasma pharmacokinetics and a qualitative assessment of sedation were obtained in male Sprague Dawley rats according to the following procedure. Rats were dosed by intravenous bolus dose (60 seconds) via the foot dorsal vein at 5 mg/kg in an appropriate vehicle. In order to assess sedation, rats were gently restrained by hand to a lateral position for dose administration. […] If the animal was unable to return to an upright position, the time was recorded as the onset of loss of righting reflex (LRR). […] Sluggish or incomplete righting twice consecutively within a 30 second interval qualifies as a loss of righting reflex. After onset of LRR, animals were assessed every 5 minutes in the same manner. Recovery of righting reflex is defined as the ability of a rat to right itself completely within 20 seconds of being placed in dorsal recumbency. The duration of LRR is defined as the time interval between LRR and the return of righting reflex.

The target in assay [2] is T1, GABA receptor α4β3δ (Homo sapiens, UniProt P28472+P48169).
T1 construct: expressed in transfected cells; host or cells: CHO cells, transiently transfected
The assay is described as follows: Patch clamp electrophysiology, manual patch in CHO cells. Format: cell-based. The following applies: 10 μM test article, GABA EC20 = 2 μM, read-out: GABA (α4β3δ) Manual patch in CHO, % efficacy at 10 μM.

Assay [3] concerns the target TBPS binding, rat brain cortical membranes in the presence of 5 μM GABA. In words: 35S-TBPS displacement (steroid inhibition of TBPS binding). The following applies: read-out: 35S-TBPS Radioligand Displacement (IC50). The method, then:
TBPS binding assays using rat brain cortical membranes in the presence of 5 μM GABA has been described (Gee et al, J. Pharmacol. Exp. Then 1987, 241, 346-353; Hawkinson et al, Mol. Pharmacol. 1994, 46, 977-985). Briefly, cortices are rapidly removed following decapitation of carbon dioxide-anesthetized Sprague-Dawley rats (200-250 g). The cortices are homogenized in 10 volumes of ice-cold 0.32 M sucrose using a glass/teflon homogenizer and centrifuged at 1500×g for 10 min at 4° C. The resultant supernatants are centrifuged at 10,000×g for 20 min at 4° C. to obtain the P2 pellets. The P2 pellets are resuspended in 200 mM NaCl/50 mM Na—K phosphate pH 7.4 buffer and centrifuged at 10,000×g for 10 min at 4° C. This washing procedure is repeated twice and the pellets are resuspended in 10 volumes of buffer. Aliquots (100 μL) of the membrane suspensions are incubated with 3 nM [^35S]-TBPS and 5 μL, aliquots of test drug dissolved in dimethyl sulfoxide (DMSO) (final 0.5%) in the presence of 5 μM GABA. The incubation is brought to a final volume of 1.0 mL with buffer. Nonspecific binding is determined in the presence of 2 μM unlabeled TBPS and ranged from 15 to 25%. Following a 90 min incubation at room temp, the assays are terminated by filtration through glass fiber filters (Schleicher and Schuell No. 32) using a cell harvester (Braudel) and rinsed three times with ice-cold buffer. Filter bound radioactivity is measured by liquid scintillation spectrometry. Non-linear curve fitting of the overall data for each drug averaged for each concentration is done using Prism (GraphPad). […] The concentration of test compound producing 50% inhibition (IC50) of specific binding and the maximal extent of inhibition (Imax) are determined for the individual experiments with the same model used for the overall data and then the means±SEMs of the individual experiments are calculated.
Various compounds are or can be screened to determine their potential as modulators of ^35S-TBPS binding in vitro. These assays are or can be performed in accordance with the above discussed procedures.

Assay [4] deals with T2, GABA receptor α1β2γ2 (Homo sapiens, UniProt P14867+P47870).
T2 construct: expressed in transfected cells; host or cells: LTK cells, stably transfected
The assay is described as follows: Patch clamp electrophysiology, Qpatch in Ltk cells. Particulars: 10 μM test article, GABA EC20 = 2 μM, read-out: GABA (α1β2γ2) Qpatch in Ltk, % efficacy at 10 μM. The class given is cell-based. (In general: Patch clamp records ionic current or voltage across a cell membrane.)

The test system of assay [5] is male beagle dogs. The assay is described as follows: Duration of lateral recumbence in dogs. The following applies: intravenous bolus, administered at 5 mg/kg. Format: in vivo, dog. As to the method:
The plasma pharmacokinetics and a qualitative assessment of sedation were obtained in male beagle dogs according to the following procedure. Dogs were dosed by intravenous bolus dose (60 seconds) via the cephalic vein at doses ranging from 2 to 5 mg/kg in an appropriate vehicle. In order to assess sedation, dogs were gently restrained for dose administration. If decreased muscle tone, limb weakness, or head drop was observed during dose administration, onset of lateral recumbence was recorded. […] Sluggish or incomplete righting to the sternal position qualifies as lateral recumbence. After onset of lateral recumbence, animals were assessed every 5 minutes in the same manner. The duration of lateral recumbence was recorded as the time interval between onset of lateral recumbence and the return to sternal position.

SMILES strings stand for the structures. pIC50: −log10 of the molar value.

T1 sequence (P48169 36-554): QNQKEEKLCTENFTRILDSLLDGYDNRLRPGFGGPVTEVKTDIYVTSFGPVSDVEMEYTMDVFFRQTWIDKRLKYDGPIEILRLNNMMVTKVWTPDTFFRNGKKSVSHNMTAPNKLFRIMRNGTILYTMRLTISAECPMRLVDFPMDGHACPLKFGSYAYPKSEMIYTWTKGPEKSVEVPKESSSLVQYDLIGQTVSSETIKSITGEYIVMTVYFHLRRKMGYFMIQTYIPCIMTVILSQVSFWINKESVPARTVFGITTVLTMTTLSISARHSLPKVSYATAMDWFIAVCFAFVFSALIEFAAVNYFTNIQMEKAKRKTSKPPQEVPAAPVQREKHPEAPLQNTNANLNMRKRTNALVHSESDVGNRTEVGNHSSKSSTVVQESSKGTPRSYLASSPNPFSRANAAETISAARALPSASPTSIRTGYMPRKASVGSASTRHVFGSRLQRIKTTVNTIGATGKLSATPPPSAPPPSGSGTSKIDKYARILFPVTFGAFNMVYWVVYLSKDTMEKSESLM
T1 sequence (P28472 26-473): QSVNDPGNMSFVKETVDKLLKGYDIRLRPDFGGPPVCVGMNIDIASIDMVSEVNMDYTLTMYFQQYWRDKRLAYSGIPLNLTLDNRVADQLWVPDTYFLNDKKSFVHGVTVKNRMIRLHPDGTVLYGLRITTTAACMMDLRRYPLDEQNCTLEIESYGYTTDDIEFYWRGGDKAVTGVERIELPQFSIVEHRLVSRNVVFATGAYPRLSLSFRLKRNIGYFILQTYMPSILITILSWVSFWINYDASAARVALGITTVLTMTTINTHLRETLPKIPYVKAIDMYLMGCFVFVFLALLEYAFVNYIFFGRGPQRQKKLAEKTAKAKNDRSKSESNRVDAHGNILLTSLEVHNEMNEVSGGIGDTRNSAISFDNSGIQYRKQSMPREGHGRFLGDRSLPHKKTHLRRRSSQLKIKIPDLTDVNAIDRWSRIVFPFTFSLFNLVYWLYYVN
T1 sequence (O14764 25-452 partner): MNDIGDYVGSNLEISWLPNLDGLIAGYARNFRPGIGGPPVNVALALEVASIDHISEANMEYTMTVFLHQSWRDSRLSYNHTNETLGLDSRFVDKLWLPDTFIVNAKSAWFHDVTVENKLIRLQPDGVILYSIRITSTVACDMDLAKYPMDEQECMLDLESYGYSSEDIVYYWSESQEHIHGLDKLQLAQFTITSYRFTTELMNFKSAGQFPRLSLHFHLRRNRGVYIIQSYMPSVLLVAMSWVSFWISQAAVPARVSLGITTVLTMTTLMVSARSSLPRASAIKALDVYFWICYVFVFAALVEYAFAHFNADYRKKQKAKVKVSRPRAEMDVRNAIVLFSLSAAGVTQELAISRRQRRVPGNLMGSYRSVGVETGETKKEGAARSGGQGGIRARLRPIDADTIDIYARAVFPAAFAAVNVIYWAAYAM
T2 sequence (P14867 28-456): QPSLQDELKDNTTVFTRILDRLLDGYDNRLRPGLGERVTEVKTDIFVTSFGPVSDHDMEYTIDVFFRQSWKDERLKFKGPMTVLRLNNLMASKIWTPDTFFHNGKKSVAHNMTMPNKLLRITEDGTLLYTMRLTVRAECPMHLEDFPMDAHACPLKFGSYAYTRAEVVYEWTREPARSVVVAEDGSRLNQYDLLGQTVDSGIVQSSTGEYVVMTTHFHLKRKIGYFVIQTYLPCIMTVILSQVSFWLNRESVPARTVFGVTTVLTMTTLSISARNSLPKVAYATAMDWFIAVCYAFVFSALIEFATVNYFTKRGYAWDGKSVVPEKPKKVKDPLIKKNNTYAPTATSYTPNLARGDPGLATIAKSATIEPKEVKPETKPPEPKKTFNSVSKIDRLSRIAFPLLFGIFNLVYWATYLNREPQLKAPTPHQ
T2 sequence (P47870 25-512 limits assumed): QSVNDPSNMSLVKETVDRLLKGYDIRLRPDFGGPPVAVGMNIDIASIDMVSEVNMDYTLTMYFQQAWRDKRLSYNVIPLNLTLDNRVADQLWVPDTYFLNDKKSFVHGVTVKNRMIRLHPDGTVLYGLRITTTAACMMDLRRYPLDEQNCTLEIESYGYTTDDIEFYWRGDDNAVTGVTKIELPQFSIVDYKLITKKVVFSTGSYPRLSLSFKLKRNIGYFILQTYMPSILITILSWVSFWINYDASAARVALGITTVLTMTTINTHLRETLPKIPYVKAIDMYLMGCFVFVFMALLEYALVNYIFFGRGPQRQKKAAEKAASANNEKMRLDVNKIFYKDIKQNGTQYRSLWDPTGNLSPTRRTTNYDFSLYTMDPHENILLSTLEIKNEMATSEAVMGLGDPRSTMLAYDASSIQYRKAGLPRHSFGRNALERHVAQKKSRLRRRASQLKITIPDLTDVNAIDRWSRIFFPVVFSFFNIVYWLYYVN
T2 sequence (P18507 40-475 partner): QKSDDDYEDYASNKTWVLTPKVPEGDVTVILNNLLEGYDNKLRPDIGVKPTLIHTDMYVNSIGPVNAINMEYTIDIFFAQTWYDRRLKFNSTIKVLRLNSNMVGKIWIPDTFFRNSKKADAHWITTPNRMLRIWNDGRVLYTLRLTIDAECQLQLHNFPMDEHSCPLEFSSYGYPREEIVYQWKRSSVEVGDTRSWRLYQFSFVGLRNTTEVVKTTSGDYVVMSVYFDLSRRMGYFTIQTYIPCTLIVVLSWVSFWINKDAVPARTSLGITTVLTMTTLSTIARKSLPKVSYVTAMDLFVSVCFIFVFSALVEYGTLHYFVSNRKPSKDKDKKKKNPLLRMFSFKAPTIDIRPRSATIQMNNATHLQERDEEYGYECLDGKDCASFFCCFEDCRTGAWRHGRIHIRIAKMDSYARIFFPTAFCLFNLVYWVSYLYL

`CO[C@H]1C[C@@]2(C)[C@@H](CC[C@H]3[C@@H]4CC[C@H](C#N)[C@@]4(C)CC(=O)[C@@H]32)C[C@@H]1O` [Compound 3]: in assay [1], the “Duration of LRR (min)” value is on record as “A (“A” indicates the duration of LRR to be <10 min)”. Further, the Emax at 10 µM in assay [2] and in assay [4] was 100 to 500% in each case. In addition, in assay [3], the pIC50 was below 6.30. Moreover, the “Duration of Lateral Recumbence (min)” value in assay [5] was “A (“A” indicates the duration to be >20 minutes)”.

As for `C[C@]12CC[C@@H](O)C[C@H]1CC[C@@H]1[C@@H]2[C@@H](O)C[C@]2(C)[C@@H](C#N)CC[C@@H]12` [Compound 9], the values for the Emax at 10 µM in assay [2] and in assay [4] were 10 to 100% and 100 to 500%, respectively. Further, in assay [3], the pIC50 was below 6.30.

For the molecule `CCCO[C@H]1C[C@@]2(C)[C@@H](CC[C@@H]3[C@@H]2CC[C@]2(C)[C@@H](C#N)CC[C@@H]32)C[C@@H]1O` [Compound 16], the “Duration of LRR (min)” value in assay [1] is listed as “C (“C” indicates the duration of LRR to be >20 minutes)”. For the same molecule, the results for the Emax at 10 µM in assay [2] and in assay [4] were 100 to 500% and above 500%, respectively. Also, the negative logarithm of the IC50 (pIC50) in assay [3] was above 8.00.

Regarding `CCO[C@H]1C[C@@]2(C)[C@@H](CC[C@H]3[C@@H]4CC[C@H](C#N)[C@@]4(C)CC(=O)[C@@H]32)C[C@@H]1O` [Compound 19], the “Duration of LRR (min)” value in assay [1] is given as “B (“B” indicates the duration of LRR to be 10-20 minutes)”. Moreover, the pIC50 in assay [3] was 7.00 to 7.30. Further, the Emax at 10 µM in assay [4] is above 500%. Also, the “Duration of Lateral Recumbence (min)” value in assay [5] is “A (“A” indicates the duration to be >20 minutes)”.

`CO[C@H]1C[C@]2(C)[C@@H](C#N)CC[C@H]2[C@@H]2CC[C@H]3C[C@H](O)CC[C@]3(C)[C@H]21` [Compound 31]: the “Duration of LRR (min)” value in assay [1] is “B (“B” indicates the duration of LRR to be 10-20 minutes)”. Also, the figures for the Emax at 10 µM in assay [2] and in assay [4] were 100 to 500% and above 500%, respectively. Besides, in assay [3], the negative logarithm of the IC50 (pIC50) was 7.30 to 8.00. Further, the “Duration of Lateral Recumbence (min)” value in assay [5] was “A (“A” indicates the duration to be >20 minutes)”.

In the case of `CO[C@H]1C[C@]2(C)[C@@H](C#N)CC[C@H]2[C@@H]2CC[C@H]3C[C@H](O)[C@@H](C)C[C@]3(C)[C@H]21` [Compound 51], in assay [1], the “Duration of LRR (min)” value is on record as “C (“C” indicates the duration of LRR to be >20 minutes)”. Moreover, in assay [3], the pIC50 is 7.30 to 8.00. Also, the Emax at 10 µM in assay [4] is above 500%.

Broadly, the pIC50 is −log10 of the IC50, conventionally taken in molar units.
